Assay results published in ChEMBL document CHEMBL4680139, “Antiproliferative activity of diarylnaphthylpyrrolidine derivative via dual target inhibition” (Eur J Med Chem, 2020).

Experiments:
MCF7 [1] = assay: Antiproliferative activity against human MCF-7 cells assessed as inhibition of cell growth measured after 48 hrs by SRB assay; format: functional, cell-based; settings: MCF7, 48 h
THP-1 = assay: Antiproliferative activity against human THP-1 cells assessed as inhibition of cell growth measured after 48 hrs by SRB assay; format: functional, cell-based; settings: THP-1, 48 h
MCF7 [2] = assay: Antiproliferative activity against human MCF-7 cells assessed as proportion of live cells at 50 ug/ml measured after 3 weeks by crystal violet staining based soft agar colony formation assay (reference value: 100%); format: functional; settings: dose 50 µg/ml
MCF7 [3] = assay: Antiproliferative activity against human MCF-7 cells assessed as proportion of dead cells at 25 ug/ml measured after 3 weeks by crystal violet staining based soft agar colony formation assay; format: functional; settings: dose 25 µg/ml
MCF7 [4] = assay: Induction of apoptosis in human MCF-7 cells at 2.17 uM by propidium iodide staining based flow cytometry (reference value: 2.1%); format: functional
MDA-MB-231 [5] = assay: Induction of cell cycle arrest in human MDA-MB-231 cells assessed as accumulation at G0/G1 phase at 2.6 uM by propidium iodide staining based flow cytometry (reference value: 77.7 +/- 0.28%); format: functional
MDA-MB-231 [6] = assay: Induction of cell cycle arrest in human MDA-MB-231 cells assessed as accumulation at G0/G1 phase at 10.42 uM by propidium iodide staining based flow cytometry (reference value: 77.7 +/- 0.28%); format: functional
MDA-MB-231 [7] = assay: Induction of cell cycle arrest in human MDA-MB-231 cells assessed as accumulation at S phase at 10.42 uM by propidium iodide staining based flow cytometry (reference value: 11.35 +/- 0.07%); format: functional
MDA-MB-231 [8] = assay: Induction of cell cycle arrest in human MDA-MB-231 cells assessed as accumulation at G2/M phase at 5.21 uM by propidium iodide staining based flow cytometry (reference value: 8.35 +/- 0.07%); format: functional
MCF7 [9] = assay: Induction of apoptosis in human MCF-7 cells assessed as proportion of necrotic cells at 4.33 uM measured after 24 hrs by Annexin V- FITC/propidium iodide staining based flow cytometry (reference value: 5.3%); format: functional
MCF7 [10] = assay: Induction of apoptosis in human MCF-7 cells assessed as proportion of necrotic cells at 8.66 uM measured after 24 hrs by Annexin V- FITC/propidium iodide staining based flow cytometry (reference value: 5.3%); format: functional
MDA-MB-231 [11] = assay: Induction of apoptosis in human MDA-MB-231 cells assessed as proportion of viable cells at 5.21 uM measured after 24 hrs by Annexin V-FITC/propidium iodide staining based flow cytometry (reference value: 99%); format: functional
MDA-MB-231 [12] = assay: Induction of apoptosis in human MDA-MB-231 cells assessed as proportion of early apoptotic cells at 5.21 uM measured after 24 hrs by Annexin V-FITC/propidium iodide staining based flow cytometry (reference value: 0.2%); format: functional
MDA-MB-231 [13] = assay: Induction of apoptosis in human MDA-MB-231 cells assessed as proportion of late apoptotic cells at 5.21 uM measured after 24 hrs by Annexin V-FITC/propidium iodide staining based flow cytometry (reference value: 0.5%); format: functional
MDA-MB-231 [14] = assay: Induction of apoptosis in human MDA-MB-231 cells assessed as proportion of necrotic cells at 5.21 uM measured after 24 hrs by Annexin V-FITC/propidium iodide staining based flow cytometry (reference value: 0.2%); format: functional
MDA-MB-231 [15] = assay: Induction of apoptosis in human MDA-MB-231 cells assessed as proportion of late apoptotic cells at 10.42 uM measured after 24 hrs by Annexin V-FITC/propidium iodide staining based flow cytometry (reference value: 0.5%); format: functional
[16] = Toxicity in Swiss albino mouse assessed as RBC level in blood at 5 mg/kg, po administered as single dose (reference value: 10.56 +/- 1.22x10^6/mm3); format: organism-based; settings: in vivo
[17] = Toxicity in Swiss albino mouse assessed as WBC level in blood at 5 mg/kg, po administered as single dose (reference value: 17.06 +/- 1.33x10^3/mm3); format: organism-based; settings: in vivo
[18] = Toxicity in Swiss albino mouse assessed as ALP level in serum at 5 mg/kg, po administered as single dose (reference value: 195.8 +/-12.06 U/L); format: organism-based; settings: in vivo
[19] = Toxicity in Swiss albino mouse assessed as total bilirubin level in serum at 5 mg/kg, po administered as single dose (reference value: 0.62 +/-0.05 mg/dl); format: organism-based; settings: in vivo
[20] = Toxicity in Swiss albino mouse assessed as creatinine level in serum at 5 mg/kg, po administered as single dose (reference value: 0.27+/-0.02 mg/dl); format: organism-based; settings: in vivo
[21] = Toxicity in Swiss albino mouse assessed as triglyceride level in serum at 5 mg/kg, po administered as single dose (reference value: 78.34 +/-2.99 mg/dl); format: organism-based; settings: in vivo
[22] = Toxicity in Swiss albino mouse assessed as WBC level in blood at 50 mg/kg, po administered as single dose (reference value: 17.06 +/- 1.33x10^3/mm3); format: organism-based; settings: in vivo
[23] = Toxicity in Swiss albino mouse assessed as SGOT level in serum at 50 mg/kg, po administered as single dose (reference value: 22.12 +/-1.91 U/L); format: organism-based; settings: in vivo
[24] = Toxicity in Swiss albino mouse assessed as triglyceride level in serum at 50 mg/kg, po administered as single dose (reference value: 78.34 +/-2.99 mg/dl); format: organism-based; settings: in vivo
[25] = Toxicity in Swiss albino mouse assessed as WBC level in blood at 300 mg/kg, po administered as single dose (reference value: 17.06 +/- 1.33x10^3/mm3); format: organism-based; settings: in vivo
[26] = Toxicity in Swiss albino mouse assessed as creatinine level in serum at 300 mg/kg, po administered as single dose (reference value: 0.27+/-0.02 mg/dl); format: organism-based; settings: in vivo
[27] = Toxicity in Swiss albino mouse assessed as triglyceride level in serum at 300 mg/kg, po administered as single dose (reference value: 78.34 +/-2.99 mg/dl); format: organism-based; settings: in vivo
[28] = Toxicity in Swiss albino mouse assessed as cholesterol level in serum at 300 mg/kg, po administered as single dose (reference value: 103.62 +/-7.45 mg/dl); format: organism-based; settings: in vivo
[29] = target: DNA topoisomerase 2-alpha (Homo sapiens) (UniProt P11388); assay: Inhibition of DNA-topoisomerase 2 in human MCF7 cells using kinetoplast DNA as substrate measured by ELISA; format: cell-based; settings: dose 4.33-17.32 µM
Sequence of DNA topoisomerase 2-alpha (Homo sapiens) (P11388 whole entry): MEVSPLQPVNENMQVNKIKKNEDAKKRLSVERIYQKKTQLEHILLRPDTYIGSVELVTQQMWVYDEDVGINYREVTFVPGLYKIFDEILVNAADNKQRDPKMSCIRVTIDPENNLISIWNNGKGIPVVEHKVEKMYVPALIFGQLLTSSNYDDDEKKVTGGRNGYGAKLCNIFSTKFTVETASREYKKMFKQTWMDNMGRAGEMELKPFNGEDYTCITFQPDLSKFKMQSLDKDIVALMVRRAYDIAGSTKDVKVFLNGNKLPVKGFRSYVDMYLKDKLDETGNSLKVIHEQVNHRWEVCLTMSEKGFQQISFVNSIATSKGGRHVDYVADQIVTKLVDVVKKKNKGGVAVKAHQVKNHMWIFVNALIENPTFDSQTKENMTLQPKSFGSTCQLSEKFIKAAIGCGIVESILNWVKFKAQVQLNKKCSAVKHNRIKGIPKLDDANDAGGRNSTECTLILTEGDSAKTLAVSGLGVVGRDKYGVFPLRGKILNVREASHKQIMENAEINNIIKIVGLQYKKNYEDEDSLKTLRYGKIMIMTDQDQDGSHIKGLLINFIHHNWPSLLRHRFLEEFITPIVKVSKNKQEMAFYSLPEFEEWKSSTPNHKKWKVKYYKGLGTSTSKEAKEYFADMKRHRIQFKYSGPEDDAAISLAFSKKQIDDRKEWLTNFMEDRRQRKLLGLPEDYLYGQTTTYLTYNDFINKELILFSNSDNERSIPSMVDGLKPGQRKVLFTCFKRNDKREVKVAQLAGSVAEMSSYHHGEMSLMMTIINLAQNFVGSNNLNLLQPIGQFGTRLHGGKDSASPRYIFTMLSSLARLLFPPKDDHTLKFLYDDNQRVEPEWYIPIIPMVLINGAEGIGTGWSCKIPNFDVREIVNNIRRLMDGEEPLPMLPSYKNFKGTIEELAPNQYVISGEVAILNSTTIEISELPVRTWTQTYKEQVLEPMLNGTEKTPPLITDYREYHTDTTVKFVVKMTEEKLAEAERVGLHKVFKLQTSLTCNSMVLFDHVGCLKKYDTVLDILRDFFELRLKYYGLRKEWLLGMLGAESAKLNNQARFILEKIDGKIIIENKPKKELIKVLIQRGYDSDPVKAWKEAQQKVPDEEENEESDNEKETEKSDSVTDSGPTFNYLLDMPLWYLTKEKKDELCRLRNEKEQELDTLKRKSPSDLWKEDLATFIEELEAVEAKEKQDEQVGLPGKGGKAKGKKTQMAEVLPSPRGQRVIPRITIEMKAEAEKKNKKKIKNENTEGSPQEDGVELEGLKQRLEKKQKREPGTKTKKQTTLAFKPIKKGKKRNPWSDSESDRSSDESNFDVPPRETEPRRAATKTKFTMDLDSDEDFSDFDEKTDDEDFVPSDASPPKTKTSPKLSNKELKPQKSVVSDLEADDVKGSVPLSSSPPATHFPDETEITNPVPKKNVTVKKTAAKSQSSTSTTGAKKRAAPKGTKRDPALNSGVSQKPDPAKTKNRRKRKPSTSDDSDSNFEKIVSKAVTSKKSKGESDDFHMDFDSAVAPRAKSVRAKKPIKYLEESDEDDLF

[30] = Toxicity in Swiss albino mouse assessed as mortality upto 300 mg/kg, po administered as single dose; format: organism-based; settings: in vivo
[31] = Toxicity in Swiss albino mouse assessed as absolute and relative liver weight at 5 to 300 mg/kg, po administered as single dose; format: organism-based; settings: in vivo, dose 5-300 mg/kg
[32] = Toxicity in Swiss albino mouse assessed as absolute and relative lung weight at 5 to 300 mg/kg, po administered as single dose; format: organism-based; settings: in vivo, dose 5-300 mg/kg
[33] = Toxicity in Swiss albino mouse assessed as absolute and relative heart weight at 5 to 300 mg/kg, po administered as single dose; format: organism-based; settings: in vivo, dose 5-300 mg/kg

COc1ccc(C(c2ccccc2OCCN2CCCC2)c2cccc3ccccc23)c(OC)c1OC (centres undefined) gave an IC50 (MCF7 [1]) of 4.33 µM, an IC50 (THP-1) of 12.6 µM and an Activity (MCF7 [2]) of 12.98%. For the same compound, the Activity (MCF7 [3]) was 79.36%, the Activity (MCF7 [4]) was 2.2% and the Activity (MDA-MB-231 [5]) was 80.2%. For the same compound, the Activity (MDA-MB-231 [6]) was 56.9%, the Activity (MDA-MB-231 [7]) was 11.35% and the Activity (MDA-MB-231 [8]) was 10.2%. It also gave an Activity (MCF7 [9]) of 10.5%, an Activity (MCF7 [10]) of 12.1% and an Activity (MDA-MB-231 [11]) of 91.4%. The Activity (MDA-MB-231 [12]) was 0.4%, the Activity (MDA-MB-231 [13]) was 3.5% and the Activity (MDA-MB-231 [14]) was 1.7%. For the same compound, the Activity (MDA-MB-231 [15]) was 34.2%, the Activity [16] was 13.06 million/mm3 and the Activity [17] was 11.11 10^3/mm3. It also gave an Activity [18] of 198.57 U/L, an Activity [19] of 0.66 mg/dL and an Activity [20] of 0.22 mg/dL. For the same compound, the Activity [21] was 77.24 mg/dL, the Activity [22] was 13.46 10^3/mm3 and the Activity [23] was 25.42 U/L. The Activity [24] was 94.42 mg/dL, the Activity [25] was 7.19 10^3/mm3 and the Activity [26] was 0.2 mg/dL. For the same compound, the Activity [27] was 106.09 mg/dL, the Activity [28] was 120.54 mg/dL and the inhibition [29] was “Dose-dependent effect”. The Activity [30] was “Non-Toxic”, the Activity [31] was “Non-Toxic” and the Activity [32] was “Non-Toxic”. The Activity [33] was “Non-Toxic”.
